Reference: US20260217701A1, “SELECTIVE BET INHIBITORS AND USES THEREOF” (Tay Therapeutics Limited, priority 2022, published 2026)
Several values for one entry are separate records, joined by “and”; a condition that tells them apart may be missing. Equal entries are not always repeated.

Tested on: collagen-induced arthritis
Assay: Collagen-induced arthritis (CIA) model: clinical scores and paw volume
Type: in vivo, Lewis rats
Settings: for Average animal paw volume / Average animal paw volume percent change (%) / Animal paw volume percent change (%): group 3 CIA + Dexamethasone; for Animal paw volume percent change (%) / clinical score left forelimb / clinical score left hind limb / clinical score right forelimb / clinical score right hind limb / clinical score, score (all limbs) / Animal paw volume: individual animals; for Overall Clinical Score: individual animals 1-8; for Animal paw volume: Group 3 (CIA + Dexamethasone)
[1] = group 3 CIA+ Dexamethasone, Day 18
[2] = group 3 CIA+ Dexamethasone, Day 19
[3] = group 3 CIA+ Dexamethasone, Day 20

Question: What does the source list for `C[C@@H]1C[C@H]2[C@@H]3CCC4=CC(=O)C=C[C@]4(C)[C@@]3(F)[C@@H](O)C[C@]2(C)[C@@]1(O)C(=O)CO` [Dexamethasone, dexamethasone]?
Answer: Average animal paw volume (Day 0, L paw): 1.33 mL; Average animal paw volume percent change (%) (Day 0, L paw): 0.00%; Animal paw volume percent change (%) (Day 0, L paw): 0.00%; Average animal paw volume (Day 0, R paw): 1.33 mL; Average animal paw volume percent change (%) (Day 0, R paw): 0.00%; Animal paw volume percent change (%) (Day 0, R paw): 0.00%; Average detailed clinical score, left forelimb (Day 0, CIA): 0.00; Average detailed clinical score, left hind limb (Day 0, CIA): 0.00; Average detailed clinical score, right forelimb (Day 0, CIA): 0.00; Average detailed clinical score, right hind limb (Day 0, CIA): 0.00; Average detailed clinical score, score (Day 0, CIA): 0.00; Average overall clinical score (Day 0, CIA): 0; clinical score left forelimb (Day 0, CIA): 0; clinical score left hind limb (Day 0, CIA): 0; clinical score right forelimb (Day 0, CIA): 0; clinical score right hind limb (Day 0, CIA): 0; clinical score, score (all limbs) (Day 0, CIA): 0; Overall Clinical Score (Day 0, CIA): 0; Animal paw volume (Day 0, L paw): 1.35 mL and 1.31 mL and 1.39 mL and 1.33 mL and 1.30 mL (2×) and 1.34 mL and 1.36 mL; Animal paw volume (Day 0, R paw): 1.34 mL and 1.30 mL (2×) and 1.38 mL and 1.35 mL and 1.29 mL and 1.36 mL and 1.37 mL; Average animal paw volume (Day 6, L paw): 1.29 mL; Average animal paw volume percent change (%) (Day 6, L paw): -3.37%; Animal paw volume percent change (%) (Day 6, L paw): −2.97% and −1.53% and −3.61% and −3.02% and −3.09% and −3.08% and −4.12% and 5.51%; Average animal paw volume (Day 6, R paw): 1.29 mL; Average animal paw volume percent change (%) (Day 6, R paw): -3.26%; Animal paw volume percent change (%) (Day 6, R paw): −3.00% and 1.16% and −2.91% and −3.72% and −1.56% and −2.70% and −5.90% and −5.13%; Average detailed clinical score, left forelimb (Day 6, CIA): 0.00; Average detailed clinical score, left hind limb (Day 6, CIA): 0.00; Average detailed clinical score, right forelimb (Day 6, CIA): 0.00; Average detailed clinical score, right hind limb (Day 6, CIA): 0.00; Average detailed clinical score, score (Day 6, CIA): 0.00; Average overall clinical score (Day 6, CIA): 0; clinical score left forelimb (Day 6, CIA): 0; clinical score left hind limb (Day 6, CIA): 0; clinical score right forelimb (Day 6, CIA): 0; clinical score right hind limb (Day 6, CIA): 0; clinical score, score (all limbs) (Day 6, CIA): 0; Overall Clinical Score (Day 6, CIA): 0; Animal paw volume (Day 6, L paw): 1.31 mL and 1.29 mL (3×) and 1.34 mL and 1.28 mL; Animal paw volume (Day 6, R paw): 1.30 mL (3×) and 1.28 mL (2×) and 1.34 mL and 1.27 mL; Average animal paw volume (Day 12, L paw): 1.27 mL; Average animal paw volume percent change (%) (Day 12, L paw): -4.94%; Animal paw volume percent change (%) (Day 12, L paw): −10.41% and −7.66% and −1.44% and −3.40% and −1.54% and −6.54% and −3.00% and −5.51%; Average animal paw volume percent change (%) (Day 12, R paw): -5.21%; Animal paw volume percent change (%) (Day 12, R paw): −6.74% and −3.09% and 0.73% and −7.43% and −1.56% and −9.27% and −7.01% and −5.86%; Average detailed clinical score, left forelimb (Day 12, CIA): 0.00; Average detailed clinical score, left hind limb (Day 12, CIA): 0.00; Average detailed clinical score, right forelimb (Day 12, CIA): 0.00; Average detailed clinical score, right hind limb (Day 12, CIA): 0.00; Average detailed clinical score, score (Day 12, CIA): 0.00; Average overall clinical score (Day 12, CIA): 0; clinical score left forelimb (Day 12, CIA): 0; clinical score left hind limb (Day 12, CIA): 0; clinical score right forelimb (Day 12, CIA): 0; clinical score right hind limb (Day 12, CIA): 0; clinical score, score (all limbs) (Day 12, CIA): 0; Overall Clinical Score (Day 12, CIA): 0; Animal paw volume (Day 12, L paw): 1.37 mL and 1.28 mL (2×) and 1.30 mL and 1.29 mL; Animal paw volume (Day 12, R paw): 1.37 mL and 1.27 mL and 1.29 mL; Average animal paw volume (Day 13, L paw): 1.28 mL; Average animal paw volume percent change (%) (Day 13, L paw): -3.57%; Animal paw volume percent change (%) (Day 13, L paw): −8.92% and −5.36% and 0.72% and −3.02% and 0.00% and 4.23% and −2.25% and −5.51%; Average animal paw volume (Day 13, R paw): 1.28 mL; Average animal paw volume percent change (%) (Day 13, R paw): -4.08%; Animal paw volume percent change (%) (Day 13, R paw): −5.99% and −2.32% and 0.36% and −7.43% and −0.78% and −6.95% and −3.69% and 5.86%; Average detailed clinical score, left forelimb (Day 13, CIA): 0; Average detailed clinical score, left hind limb (Day 13, CIA): 0; Average detailed clinical score, right forelimb (Day 13, CIA): 0; Average detailed clinical score, right hind limb (Day 13, CIA): 0; Average detailed clinical score, score (Day 13, CIA): 0; Average overall clinical score (Day 13, CIA): 0; clinical score left forelimb (Day 13, CIA): 0; clinical score left hind limb (Day 13, CIA): 0; clinical score right forelimb (Day 13, CIA): 0; clinical score right hind limb (Day 13, CIA): 0; clinical score, score (all limbs) (Day 13, CIA): 0; Overall Clinical Score (Day 13, CIA): 0; Animal paw volume (Day 13, L paw): 1.40 mL and 1.29 mL (2×) and 1.30 mL and 1.31 mL; Animal paw volume (Day 13, R paw): 1.27 mL and 1.38 mL and 1.28 mL and 1.31 mL and 1.29 mL; Average animal paw volume (Day 14, L paw): 1.27 mL; Average animal paw volume percent change (%) (Day 14, L paw): -4.60%; Animal paw volume percent change (%) (Day 14, L paw): −8.18% and −5.36% and 0.00% and −4.53% and −1.54% and −5.00% and −3.75% and −8.46%; Average animal paw volume percent change (%) (Day 14, R paw): -5.07%; Animal paw volume percent change (%) (Day 14, R paw): −5.62% and −2.70% and 0.00% and −8.92% and −2.33% and −7.72% and −5.17% and −8.06%; Average detailed clinical score, left forelimb (Day 14, CIA): 0; Average detailed clinical score, left hind limb (Day 14, CIA): 0; Average detailed clinical score, right forelimb (Day 14, CIA): 0; Average detailed clinical score, right hind limb (Day 14, CIA): 0; Average detailed clinical score, score (Day 14, CIA): 0; Average overall clinical score (Day 14, CIA): 0; clinical score left forelimb (Day 14, CIA): 0; clinical score left hind limb (Day 14, CIA): 0; clinical score right forelimb (Day 14, CIA): 0; clinical score right hind limb (Day 14, CIA): 0; clinical score, score (all limbs) (Day 14, CIA): 0; Overall Clinical Score (Day 14, CIA): 0; Animal paw volume (Day 14, L paw): 1.39 mL and 1.27 mL and 1.28 mL and 1.29 mL; Animal paw volume (Day 14, R paw): 1.38 mL and 1.29 mL; Average animal paw volume percent change (%) (Day 15, L paw): −5.47%; Animal paw volume percent change (%) (Day 15, L paw): −8.92% and −7.28% and −2.17%; Average animal paw volume percent change (%) (Day 15, R paw): −5.41%; Animal paw volume percent change (%) (Day 15, R paw): −6.74% and −4.25% and 1.45%; Average detailed clinical score, left forelimb (Day 15, CIA): 0; Average detailed clinical score, left hind limb (Day 15, CIA): 0; Average detailed clinical score, right forelimb (Day 15, CIA): 0; Average detailed clinical score, right hind limb (Day 15, CIA): 0; Average detailed clinical score, score (Day 15, CIA): 0; Average overall clinical score (Day 15, CIA): 0; clinical score left forelimb (Day 15, CIA): 0; clinical score left hind limb (Day 15, CIA): 0; clinical score right forelimb (Day 15, CIA): 0; clinical score right hind limb (Day 15, CIA): 0; clinical score, score (all limbs) (Day 15, CIA): 0; Overall Clinical Score (Day 15, CIA): 0; Animal paw volume (Day 15, L paw): 1.36 mL and 1.28 mL and 1.33 mL and 1.27 mL; Animal paw volume (Day 15, R paw): 1.36 mL and 1.27 mL (2×) and 1.32 mL; Average animal paw volume (Day 18, L paw): 1.29 mL; Average animal paw volume percent change (%) (Day 18, L paw): −3.01%; Animal paw volume percent change (%) (Day 18, L paw): −5.20% and −6.51% and 4.33%; Average animal paw volume (Day 18, R paw): 1.29 mL; Average animal paw volume percent change (%) (Day 18, R paw): −3.14%; Animal paw volume percent change (%) (Day 18, R paw): 4.49% and −4.63% and 4.36%; Average detailed clinical score, left forelimb (Day 18, CIA): 0.00; Average detailed clinical score, left hind limb (Day 18, CIA): 0.00; Average detailed clinical score, right forelimb (Day 18, CIA): 0.00; Average detailed clinical score, right hind limb (Day 18, CIA): 0.00; Average detailed clinical score, score (Day 18, CIA): 0.00; Average overall clinical score (Day 18, CIA): 0; Overall Clinical Score (Day 18, CIA): 0; Animal paw volume (Day 18, L paw): 1.28 mL and 1.45 mL and 1.31 mL and 1.29 mL and 1.34 mL and 1.30 mL; Animal paw volume (Day 18, R paw): 1.28 mL and 1.44 mL and 1.31 mL and 1.29 mL (2×) and 1.34 mL; Average animal paw volume (Day 19, L paw): 1.29 mL; Average animal paw volume percent change (%) (Day 19, L paw): −3.33%; Animal paw volume percent change (%) (Day 19, L paw): 5.20% and −6.90%; Average animal paw volume (Day 19, R paw): 1.28 mL; Average animal paw volume percent change (%) (Day 19, R paw): −3.57%; Animal paw volume percent change (%) (Day 19, R paw): −5.24% and −6.18%; Average detailed clinical score, left forelimb (Day 19, CIA): 0.00; Average detailed clinical score, left hind limb (Day 19, CIA): 0.00; Average detailed clinical score, right forelimb (Day 19, CIA): 0.00; Average detailed clinical score, right hind limb (Day 19, CIA): 0.00; Average detailed clinical score, score (Day 19, CIA): 0.00; Average overall clinical score (Day 19, CIA): 0; Overall Clinical Score (Day 19, CIA): 0; Animal paw volume (Day 19, L paw): 1.28 mL (2×) and 1.44 mL and 1.30 mL (2×) and 1.33 mL; Animal paw volume (Day 19, R paw): 1.27 mL (2×) and 1.44 mL and 1.31 mL and 1.32 mL and 1.30 mL; Average animal paw volume (Day 21, L paw): 1.28 mL; Average animal paw volume percent change (%) (Day 21, L paw): −3.56%; Animal paw volume percent change (%) (Day 21, L paw): −6.32% and −6.90%; Average animal paw volume (Day 21, R paw): 1.29 mL; Average animal paw volume percent change (%) (Day 21, R paw): −3.51%; Animal paw volume percent change (%) (Day 21, R paw): −5.99% and −6.18%; Average detailed clinical score, left forelimb (Day 21, CIA): 0.00; Average detailed clinical score, left hind limb (Day 21, CIA): 0.00; Average detailed clinical score, right forelimb (Day 21, CIA): 0.00; Average detailed clinical score, right hind limb (Day 21, CIA): 0.00; Average detailed clinical score, score (Day 21, CIA): 0.00; Average overall clinical score (Day 21, CIA): 0; Overall Clinical Score (Day 21, CIA): 0; Animal paw volume (Day 21, L paw): 1.43 mL and 1.31 mL (2×) and 1.30 mL (2×); Animal paw volume (Day 21, R paw): 1.43 mL and 1.31 mL and 1.30 mL (2×) and 1.32 mL; clinical score left forelimb [1]: 0; clinical score left hind limb [1]: 0; clinical score right forelimb [1]: 0; clinical score right hind limb [1]: 0; clinical score, score (all limbs) [1]: 0; clinical score left forelimb [2]: 0; clinical score left hind limb [2]: 0; clinical score right forelimb [2]: 0; clinical score right hind limb [2]: 0; clinical score, score (all limbs) [2]: 0; clinical score left forelimb [3]: 0; clinical score left hind limb [3]: 0; clinical score right forelimb [3]: 0; clinical score right hind limb [3]: 0; clinical score, score (all limbs) [3]: 0
